Measured values reported in PMC4900597, “Evaluation of the Effects of Pasireotide LAR Administration on Lymphocele Prevention after Axillary Node Dissection for Breast Cancer: Results of a Randomized Non-Comparative Phase 2 Study” (PLoS ONE, 2016).
Starred links: 1 amine or outer side, 2 acyl side, 3 side chain; linkers in the order of their positions; H or OH if unused. Non-standard residues stand in square brackets, D forms with d. Residues, ends and D or L forms follow the SMILES beside them. Groups on a side chain read outwards from the residue. *: point of attachment. Ethylenediamine = C(CN[*:2])N[*:1]; Hyp = O=C(O)[C@@H]1C[C@@H](O)CN1; Phg = N[C@H](C(=O)O)c1ccccc1; CO = O=C([*:1])[*:2]; Bn = c1ccc(C*)cc1

How the values were obtained:
[1] = test system: sst4; design: method as in PMID 11980628; details: ref [14]; cited from earlier work
From the text: Pasireotide is an injectable somatostatin analog. […] The five somatostatin receptors (sst 1 to 5) are expressed in various organs under normal physiological conditions. Somatostatin analogs activate these receptors, which in turn reduce cell activity and inhibit hormone synthesis. Octreotide and lanreotide, which are currently used, have strong affinities for the sst2 receptor and moderate affinities, if any, for the other receptor types.

[2] = test system: female patients undergoing mastectomy with axillary lymph node dissection for breast cancer; test: Phase 2 trial, safety / adverse events; type: in vivo, human; details: treatment group; patient with insulin-dependent diabetes hospitalised for hyperglycaemia
Method: The screening was performed during the pre-surgical visit. At the baseline visit (V1) 7 to 10 days prior to surgery, patients signed the informed consent, and pasireotide or the placebo were injected. In addition, a blood sample for pharmacokinetic monitoring was taken. On the day of surgery or the day after surgery (V2), data concerning the operation (type of surgery, duration, intraoperative complications, type and number of drains) and recording of adverse events were performed. On the day of discharge (V3), the summary of the daily collection of postoperative data was completed (daily and total drainage volumes, dates on which drains were removed and overall duration of drainage, postoperative complications, whether aspiration of a symptomatic lymphocele was required, length of hospital stay and recording of adverse events).
A second blood sample for pharmacokinetic monitoring was taken during this visit.
Follow-up visits at 2 months (V6) allowed the recording of late adverse events.

[3] = test system: sst3; design: method as in PMID 11980628; details: ref [14]; cited from earlier work
From the text: (§1) The five somatostatin receptors (sst 1 to 5) are expressed in various organs under normal physiological conditions. Somatostatin analogs activate these receptors, which in turn reduce cell activity and inhibit hormone synthesis. Octreotide and lanreotide, which are currently used, have strong affinities for the sst2 receptor and moderate affinities, if any, for the other receptor types.

[4] = test system: sst5; design: method as in PMID 11980628; details: ref [14]; cited from earlier work
From the text: as §1

[5] = test system: female patients undergoing mastectomy with axillary lymph node dissection for breast cancer; test: Phase 2 trial, secondary endpoints: post-operative course (drainage, aspirations, healing, hospital stay); type: in vivo, human
[6] = cited from earlier work
Method: Differences between the results reported by Carcoforo [10] and Mahmoud and our results could be partially explained. First, the clinical practices were different. In our practice, drains were removed before the seventh post-operative day, whereas in the studies by Carcoforo [10] and Mahmoud^11 the mean duration of drainage was between 7 and 25 days. Second, the other authors both used octreotide 0.1 mg three times a day subcutaneously for 5 [10] or 7 [11] days, starting on the first postoperative day. In our study, we chose a long-acting release formulation of pasireotide (pasir ... || The gradual release form must be injected intramuscularly prior to surgery. An effective plateau concentration is obtained after 10 days regardless of the selected dosage (20, 40, or 60 mg) (3).

[7] = test system: female patients undergoing mastectomy with axillary lymph node dissection for breast cancer; test: Phase 2 randomised trial, primary outcome: absence of post-operative axillary symptomatic lymphocele; details: versus placebo group
Method: All female patients for whom mastectomy and ALND were indicated were eligible for the study, including patients who had received neo-adjuvant chemotherapy. Main exclusion criteria were related to diabetes, cardiac insufficiency, disorder of cardiac conduction or hepatic failure. […] This choice of these variables was decided because they could influence the rate of post-operative lymphocele and so created bias. Randomization was carried out by the Statistics Team at Hôpital Saint Louis in charge of the project (only one randomization list for both centers). […]
The postoperative visit was 28 ± 4 days following surgery (V5), and a routine lymphocele aspiration was warranted and considered positive if the aspirated volume exceeded 120 cc. Again, data on the number of repeated lymphocele aspirations and the volume were collected, and adverse events were recorded.
The primary motivation for this sequential Bayesian strategy were: (1) the uncertainty about the effect of the procedure, (2) the small sample and (3) it allows continuous monitoring of outcomes throughout the trial. […] Additionally, based on the subsequent distribution experimental group, early stopping criteria were calculated to allow early termination of the trial for inefficacy if there was substantial evidence that the estimated response rate was unacceptably low compared to the expected minimal response rate of 60%. […]

[8] = test system: sst1; details: ref [14]; cited from earlier work
From the text: as §1

[9] = test system: patients after axillary node dissection in breast cancer; design: method as in PMID 17214811; details: p = 0.0001, ref [11], cited from earlier work
[10] = test system: patients after axillary node dissection in breast cancer; design: method as in PMID 12648685; details: p = 0.0001, ref [10], cited from earlier work
[11] = test system: sst2; design: method as in 2 sources, ref [14] = [14]; PMID 11980628; doi:10.1530/eje.0.1460707; 14 Bruns C , Lewis I , Briner U , Meno-Tetang G , Weckbecker G . SOM230: a novel somatostatin peptidomimetic with broad somatotropin release inhibiting factor (SRIF) receptor binding and a unique anti ||| ref [14] (a number printed in a supplementary file, which may have a reference list of its own: not looked up in the article's list); details: ref [14]; cited from earlier work
From the text: The five somatostatin receptors (sst 1 to 5) are expressed in various organs under normal physiological conditions. Somatostatin analogs activate these receptors, which in turn reduce cell activity and inhibit hormone synthesis. Octreotide and lanreotide, which are currently used, have strong affinities for the sst2 receptor and moderate affinities, if any, for the other receptor types. […] Like natural somatostatin and known analogs, its pharmaceutical efficacy depends on its binding to somatostatin receptors. There are five of these (sst 1 to 5); they are expressed in various bodily tissues under normal physiological conditions. Somatostatin analogs activate these receptors, which in turn reduce cell activity and inhibits hormone synthesis. (7). Octreotide and lanreotide, which are currently used, have a strong affinity for the sst2 receptor and moderate affinity, if any, for the other types.

[12] = test system: renal transplantation patients; design: method as in PMID 16757259; details: patients treated with octreotide; ref [22]; cited from earlier work
[13] = test system: women with breast cancer undergoing ALND; details: compared to placebo, p = 0.035; ref [12]; cited from earlier work
Method: More recently, Gauthier et al. have reported the results of a phase 3, double-blind, randomized study using Lanreotide Autogel 90 mg LAR to reduce lymphorrhea volumes in the axillary drain during the first 4 postoperative days.

[14] = pasireotide LAR 40 and 60 mg, ref [21]

Compound: NCCCC[C@@H]1NC(=O)[C@@H](Cc2c[nH]c3ccccc23)NC(=O)[C@H](c2ccccc2)NC(=O)[C@@H]2C[C@@H](OC(=O)NCCN)CN2C(=O)[C@H](Cc2ccccc2)NC(=O)[C@H](Cc2ccc(OCc3ccccc3)cc2)NC1=O [Pasireotide] (cyclo([Hyp]([CO-Ethylenediamine])[Phg][dW]KY(Bn)F))
- Affinity for sst4 [1]: none
- Serious adverse events [2]: one
- Affinity for sst3 relative to octreotide [3]: 5 times greater
- Affinity for sst5 relative to octreotide [4]: 40 times greater
- Daily flow axillary drain ([5]; Fig 3, Day 1): 50 mL
- Daily flow mastectomy drain ([5]; Fig 3, Day 1): 52,5 ml
- Daily flow axillary drain ([5]; Fig 3, Day 2): 50 mL
- Daily flow mastectomy drain ([5]; Fig 3, Day 2): 40 mL
- Daily flow axillary drain ([5]; Fig 3, Day 3): 65 mL
- Daily flow mastectomy drain ([5]; Fig 3, Day 3): 38 mL
- Daily flow axillary drain ([5]; Fig 3, Day 4): 50 mL
- Daily flow mastectomy drain ([5]; Fig 3, Day 4): 40 mL
- Daily flow axillary drain ([5]; Fig 3, Day 5): 75 mL
- Daily flow mastectomy drain ([5]; Fig 3, Day 5): 41 mL
- Daily flow axillary drain ([5]; Fig 3, Day 6): 50 mL
- Daily flow mastectomy drain ([5]; Fig 3, Day 6): 40 mL
- Daily flow axillary drain ([5]; Fig 3, Day 7): 35 mL
- Daily flow mastectomy drain ([5]; Fig 3, Day 7): 30 mL
- Length of time to onset of adjuvant chemotherapy ([5]; median [IQR]): 54 [37.5,60] days
- Repeated lymphocele aspirations, total volume ([5]; median [IQR]): 270 [135,415] ml
- Duration of drainage, axillary drain ([5]; median [IQR], n = 42): 3 [2,5] days
- Duration of drainage, mastectomy drain ([5]; median [IQR], n = 42): 2.5 [1.75,4] days
- Length of the hospital stay ([5]; median [IQR], n = 42): 5 [4,6] days
- Total flow, axillary drain ([5]; median [IQR], n = 42): 165 [81,400.2] ml
- Total flow, mastectomy drain ([5]; median [IQR], n = 42): 132.5 [55.5,226] ml
- Patients who underwent systematic lymphocele aspiration on day 28 ([5]; treatment group): Twelve
- Time to effective plateau concentration ([6]; gradual release form i.m., regardless of dosage (20, 40, or 60 mg), ref (3) Schmid et al AACE 2005): 10 days
- Time of first concentration peak after administration [6, 14]: 1 days
- Time of second slow-release peak with maximum concentrations [6, 14]: ~20 days
- Day from which the effect was obtained after injection ([6]; pasireotide LAR, ref [21]): seventh
- Duration for which the effect remained ([6]; pasireotide LAR, ref [21]): up to 30 days
- Residual concentration at day 28 ([6]; patients with neuroendocrine tumors, ref [23]): 16.5 ng/mL
- Decrease in symptomatic lymphocele development in treated patients [7]: 12.2%
- Affinity for sst1 relative to octreotide [8]: 30 times greater

Compound: Octreotide
- Affinity for sst4 [1]: none
- Need for postoperative aspiration of lymphoceles ([9]; control 90%): 40%
- Mean daily drainage volume ([9]; control 145 ml): 104 mL
- Total duration of drainage ([9]; control 25 days): 12.7 days
- Daily drainage volume ([10]; subcutaneous octreotide in immediate postoperative period, untreated group 94.6 ml): 65.4 mL
- Time of drain removal after surgery ([10]; untreated group 16.7 days): 7.1 days
- Affinity for the sst2 receptor, in words [11]: strong
- Duration of lymphatic leakage following transplantation [12]: shorter duration
- Incidence of lymphocele formation after drain removal [12]: lower incidence

Compound: lanreotide
- Affinity for the sst2 receptor, in words [11]: strong
- Lymphorrhea volume, patients who only underwent an axillary dissection [13]: significantly reduced
